Results reported in patent US10000501B2, “Inhibitors of HIF prolyl hydroxylase” (MERCK SHARP & DOHME CORP., priority 2014, dated 2018).

Target: T1, human HIF-PHD2 (Homo sapiens, UniProt Q9GZT9)
T1 construct: FLAG-tagged full length PHD2 expressed in and purified from baculovirus-infected Sf9 cells; FLAG; made in house; host or cells: baculovirus-infected Sf9 cells
Test: HIF-PHD2 inhibition assay (hydroxylation of HIF-1α peptide, time resolved fluorescence)
Format: biochemical
Conditions: FLAG-tagged full length PHD2; 0.2 μM 2-oxoglutarate, 0.5 μM HIF-1α peptide
Method: To each well of a 384-well plate, 1 μL of test compounds in DMSO (final concentration ranging from 0.3 nM to 10 uM) were added into 20 μl of assay buffer (50 mM Tris pH 7.4/0.01% Tween-20/0.1 mg/ml bovine serum albumin/10 μM ferrous sulfate/1 mM sodium ascorbate/20 μg/ml catalase) containing 0.15 μg/ml FLAG-tagged full length PHD2 expressed in and purified from baculovirus-infected Sf9 cells. […] Purif.

T1 sequence (Q9GZT9 whole entry): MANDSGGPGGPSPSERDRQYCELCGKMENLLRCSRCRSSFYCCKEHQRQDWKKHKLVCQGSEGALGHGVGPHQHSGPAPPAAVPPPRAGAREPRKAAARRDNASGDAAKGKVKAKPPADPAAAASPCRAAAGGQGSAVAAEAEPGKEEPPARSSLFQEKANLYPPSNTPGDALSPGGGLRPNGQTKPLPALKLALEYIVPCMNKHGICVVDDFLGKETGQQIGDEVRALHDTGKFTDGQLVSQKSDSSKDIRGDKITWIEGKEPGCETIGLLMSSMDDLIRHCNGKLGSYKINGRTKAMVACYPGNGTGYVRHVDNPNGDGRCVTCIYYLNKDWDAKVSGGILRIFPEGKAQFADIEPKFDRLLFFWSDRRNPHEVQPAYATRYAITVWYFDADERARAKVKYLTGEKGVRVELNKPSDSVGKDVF

Structure (SMILES)	IC50 [nM]
CC(C)(O)c1ccc(Cn2c3c(c(O)c(C(=O)NCC(=O)O)c2=O)COCC3)cc1 [Example 33, 2-(4-Hydroxy-1-(4-(2-hydroxypropan-2-yl)benzyl)-2-oxo-2,5,7,8-tetrahydro-1H-pyrano[4,3-b]pyridine-3-carboxamido)acetic acid]	49.9
O=C(O)CNC(=O)c1c(O)c2c(n(Cc3ccc(F)c(F)c3)c1=O)COCC2 [Example 54, 2-(1-(3,4-difluorobenzyl)-4-hydroxy-2-oxo-2,5,6,8-tetrahydro-1H-pyrano[3,4-b]pyridine-3-carboxamido)acetic acid]	30.8
O=C(O)CNC(=O)c1c(O)c2c(n(Cc3ccc(F)cc3)c1=O)COCC2 [Example 53, 2-(1-(4-fluorobenzyl)-4-hydroxy-2-oxo-2,5,6,8-tetrahydro-1H-pyrano[3,4-b]pyridine-3-carboxamido)acetic acid]	29.3
CN1Cc2c(c(O)c(C(=O)NCC(=O)O)c(=O)n2Cc2ccc(F)cc2F)CC1=O [Example 72, 2-(1-(2,4-difluorobenzyl)-4-hydroxy-7-methyl-2,6-dioxo-1,2,5,6,7,8-hexahydro-1,7-naphthyridine-3-carboxamido)acetic acid]	28.7
O=C(O)CNC(=O)c1c(O)c2c(n(Cc3ccccn3)c1=O)COCC2 [Example 59, 2-(4-hydroxy-2-oxo-1-(pyridin-2-ylmethyl)-2,5,6,8-tetrahydro-1H-pyrano[3,4-b]pyridine-3-carboxamido)acetic acid]	44.2
O=C(O)CNC(=O)c1c(O)c2c(n(CC3CCCCC3)c1=O)CCOC2 [Example 20, 2-(1-(cyclohexylmethyl)-4-hydroxy-2-oxo-2,5,7,8-tetrahydro-1H-pyrano[4,3-b]pyridine-3-carboxamido)acetic acid]	76
CNC(=O)c1ccc(Cn2c3c(c(O)c(C(=O)NCC(=O)O)c2=O)COCC3)cc1 [Example 26, 2-(4-Hydroxy-1-(4-(methylcarbamoyl)benzyl)-2-oxo-2,5,7,8-tetrahydro-1H-pyrano[4,3-b]pyridine-3-carboxamido)acetic acid]	30.8
NC(=O)c1ccc(Cn2c3c(c(O)c(C(=O)NCC(=O)O)c2=O)CCOC3)cc1 [Example 64, 2-(1-(4-Carbamoylbenzyl)-4-hydroxy-2-oxo-2,5,6,8-tetrahydro-1H-pyrano[3,4-b]pyridine-3-carboxamido)acetic acid]	30.6
O=C(O)CNC(=O)c1c(O)c2c(n(Cc3ccc(C(F)(F)F)cc3)c1=O)CN(Cc1ccccc1)CC2 [Example 80, 2-(7-Benzyl-4-hydroxy-2-oxo-1-(4-(trifluoromethyl)benzyl)-1,2,5,6,7,8-hexahydro-1,7-naphthyridine-3-carboxamido)acetic acid]	32
Cc1cc(Cn2c3c(c(O)c(C(=O)NCC(=O)O)c2=O)CCOC3)ccc1C#N [Example 45, 2-(1-(4-cyano-3-methylbenzyl)-4-hydroxy-2-oxo-2,5,6,8-tetrahydro-1H-pyrano[3,4-b]pyridine-3-carboxamido)acetic acid]	90.1
O=C(O)CNC(=O)c1c(O)c2c(n(Cc3ccncc3)c1=O)COCC2 [Example 60, 2-(4-hydroxy-2-oxo-1-(pyridin-4-ylmethyl)-2,5,6,8-tetrahydro-1H-pyrano[3,4-b]pyridine-3-carboxamido)acetic acid]	30.4
O=C(O)CNC(=O)c1c(O)c2c(n(Cc3ncc(C(F)(F)F)cn3)c1=O)CCOC2 [Example 23, 2-(4-hydroxy-2-oxo-1-((5-(trifluoromethyl)pyrimidin-2-yl)methyl)-2,5,7,8-tetrahydro-1H-pyrano[4,3-b]pyridine-3-carboxamido)acetic acid]	44.5
Cn1c2c(c(O)c(C(=O)NCC(=O)O)c1=O)COCC2 [Example 22, 2-(4-hydroxy-1-methyl-2-oxo-2,5,7,8-tetrahydro-1H-pyrano[4,3-b]pyridine-3-carboxamido)acetic acid]	56.1
O=C(O)CNC(=O)c1c(O)c2c(n(Cc3cncs3)c1=O)COCC2 [Example 62, 2-(4-hydroxy-2-oxo-1-(thiazol-5-ylmethyl)-2,5,6,8-tetrahydro-1H-pyrano[3,4-b]pyridine-3-carboxamido)acetic acid]	44.1

Further molecules by falling IC50, results first:

IC50 [nM]	Structure (SMILES)
28.6	O=C(O)CNC(=O)c1c(O)c2c(n(Cc3ccc(OC(F)F)cc3)c1=O)COCC2 [Example 49, 2-(1-(4-(difluoromethoxy)benzyl)-4-hydroxy-2-oxo-2,5,6,8-tetrahydro-1H-pyrano[3,4-b]pyridine-3-carboxamido)acetic acid]
26.5	O=C(O)CNC(=O)c1c(O)c2c(n(Cc3cc(F)c(F)cc3F)c1=O)COCC2 [Example 43, 2-(4-hydroxy-2-oxo-1-(2,4,5-trifluorobenzyl)-2,5,6,8-tetrahydro-1H-pyrano[3,4-b]pyridine-3-carboxamido)acetic acid]
25.5	O=C(O)CNC(=O)c1c(O)c2c(n(Cc3ccccc3Cl)c1=O)COCC2 [Example 58, 2-(1-(2-chlorobenzyl)-4-hydroxy-2-oxo-2,5,6,8-tetrahydro-1H-pyrano[3,4-b]pyridine-3-carboxamido)acetic acid]
24.1	O=C(O)CNC(=O)c1c(O)c2c(n(Cc3ccc(F)cc3F)c1=O)COCC2 [Example 38, 2-(1-(2,4-difluorobenzyl)-4-hydroxy-2-oxo-2,5,6,8-tetrahydro-1H-pyrano[3,4-b]pyridine-3-carboxamido)acetic acid]
23.6	O=C(O)CNC(=O)c1c(O)c2c(n(Cc3ccc(-c4ccc(C(F)(F)F)cc4)cc3)c1=O)COCC2 [Example 65, 2-(4-Hydroxy-2-oxo-1-((4′-(trifluoromethyl)-[1,1′-biphenyl]-4-yl)methyl)-2,5,6,8-tetrahydro-1H-pyrano[3,4-b]pyridine-3-carboxamido)acetic acid]
22.6	N#Cc1ccc(Cn2c3c(c(O)c(C(=O)NCC(=O)O)c2=O)CCOC3)cc1F [Example 61, 2-(1-(4-cyano-3-fluorobenzyl)-4-hydroxy-2-oxo-2,5,6,8-tetrahydro-1H-pyrano[3,4-b]pyridine-3-carboxamido)acetic acid]
21.8	N#Cc1ccc(Cn2c3c(c(O)c(C(=O)NCC(=O)O)c2=O)CCOC3)cc1 [Example 40, 2-(1-(4-cyanobenzyl)-4-hydroxy-2-oxo-2,5,6,8-tetrahydro-1H-pyrano[3,4-b]pyridine-3-carboxamido)acetic acid]
20.2	CS(=O)(=O)c1ccc(Cn2c3c(c(O)c(C(=O)NCC(=O)O)c2=O)COCC3)cc1 [Example 11, 2-(4-hydroxy-1-(4-(methylsulfonyl)benzyl)-2-oxo-2,5,7,8-tetrahydro-1H-pyrano[4,3-b]pyridine-3-carboxamido)acetic acid]
17.2	CN1Cc2c(c(O)c(C(=O)NCC(=O)O)c(=O)n2Cc2cccc(C#N)c2)CC1=O [Example 73, 2-(1-(3-cyanobenzyl)-4-hydroxy-7-methyl-2,6-dioxo-1,2,5,6,7,8-hexahydro-1,7-naphthyridine-3-carboxamido)acetic acid]
16	N#Cc1ccc(Cn2c3c(c(O)c(C(=O)NCC(=O)O)c2=O)COCC3)cc1F [Example 29, 2-(1-(4-Cyano-3-fluorobenzyl)-4-hydroxy-2-oxo-2,5,7,8-tetrahydro-1H-pyrano[4,3-b]pyridine-3-carboxamido)acetic acid]
15.1	O=C(O)CNC(=O)c1c(O)c2c(n(Cc3csc(C(F)(F)F)n3)c1=O)CCOC2 [Example 35, 2-(4-Hydroxy-2-oxo-1-((2-(trifluoromethyl)thiazol-4-yl)methyl)-2,5,7,8-tetrahydro-1H-pyrano[4,3-b]pyridine-3-carboxamido)acetic acid]
13.9	N#Cc1ccc(Cn2c3c(c(O)c(C(=O)NCC(=O)O)c2=O)COCC3)cc1 [Example 5, 2-(1-(4-Cyanobenzyl)-4-hydroxy-2-oxo-2,5,7,8-tetrahydro-1H-pyrano[4,3-b]pyridine-3-carboxamido)acetic acid]
13.7	O=C(O)CNC(=O)c1c(O)c2c(n(Cc3ccc(F)cc3)c1=O)CCOC2 [Example 9, 2-(1-(4-fluorobenzyl)-4-hydroxy-2-oxo-2,5,7,8-tetrahydro-1H-pyrano[4,3-b]pyridine-3-carboxamido)acetic acid]
13.5	O=C(O)CNC(=O)c1c(O)c2c(n(Cc3ccc(-c4ccc(Cl)cc4)cc3)c1=O)COCC2 [Example 67, 2-(1-((4′-chloro-[1,1′-biphenyl]-4-yl)methyl)-4-hydroxy-2-oxo-2,5,6,8-tetrahydro-1H-pyrano[3,4-b]pyridine-3-carboxamido)acetic acid]
13.4	O=C(O)CNC(=O)c1c(O)c2c(n(Cc3ccc(OC(F)F)cc3)c1=O)CCOC2 [Example 8, 2-(1-(4-(difluoromethxoy)benzyl)-4-hydroxy-2-oxo-2,5,7,8-tetrahydro-1H-pyrano[4,3-b]pyridine-3-carboxamido)acetic acid]
12.5	CC(C)c1ccc(Cn2c3c(c(O)c(C(=O)NCC(=O)O)c2=O)COCC3)cc1 [Example 12, 2-(4-hydroxy-1-(4-isopropylbenzyl)-2-oxo-2,5,7,8-tetrahydro-1H-pyrano[4,3-b]pyridine-3-carboxamido)acetic acid]
10.6	CN1Cc2c(c(O)c(C(=O)NCC(=O)O)c(=O)n2Cc2ccccc2Cl)CC1=O [Example 76, 2-(1-(2-chlorobenzyl)-4-hydroxy-7-methyl-2,6-dioxo-1,2,5,6,7,8-hexahydro-1,7-naphthyridine-3-carboxamido)acetic acid]
10.3	O=C(O)CNC(=O)c1c(O)c2c(n(Cc3ccc(OC(F)(F)F)cc3)c1=O)CCOC2 [Example 7, 2-(4-hydroxy-2-oxo-1-(4-(trifluoromethoxy)benzyl)-2,5,7,8-tetrahydro-1H-pyrano[4,3-b]pyridine-3-carboxamido)acetic acid]
